ChEMBL document CHEMBL4806968, “Hipk inhibitors and methods of use thereof” (2020)
Calls of active or inactive are those of the source. The calls are words filed in the database; no cut-off is given here.

How the values were obtained:
[1] = biological target: Receptor-interacting serine/threonine-protein kinase 2 (Homo sapiens) (UniProt O43353); assay: Inhibition of RIPK2 (unknown origin) at 0.5 uM relative to control
[2] = biological target: Ephrin type-A receptor 4 (Homo sapiens) (UniProt P54764); assay: Inhibition of EPHA4 (unknown origin) at 0.5 uM relative to control
[3] = biological target: Mitogen-activated protein kinase 14 (Homo sapiens) (UniProt Q16539); assay: Inhibition of p38alpha (unknown origin) at 0.5 uM relative to control
Chain of Mitogen-activated protein kinase 14 (Homo sapiens) (Q16539 whole entry): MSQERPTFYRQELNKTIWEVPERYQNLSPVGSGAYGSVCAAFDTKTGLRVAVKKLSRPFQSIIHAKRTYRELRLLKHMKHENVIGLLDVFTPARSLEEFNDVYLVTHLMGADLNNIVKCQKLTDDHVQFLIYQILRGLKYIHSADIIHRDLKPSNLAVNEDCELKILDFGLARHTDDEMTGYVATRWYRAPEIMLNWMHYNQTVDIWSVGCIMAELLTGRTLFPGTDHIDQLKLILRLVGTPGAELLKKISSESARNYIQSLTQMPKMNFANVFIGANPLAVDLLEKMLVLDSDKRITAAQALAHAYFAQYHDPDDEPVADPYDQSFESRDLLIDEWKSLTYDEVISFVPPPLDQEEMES

[4] = biological target: Ephrin type-A receptor 7 (Homo sapiens) (UniProt Q15375); assay: Inhibition of EPHA7 (unknown origin) at 0.5 uM relative to control
[5] = biological target: Platelet-derived growth factor receptor beta (Homo sapiens) (UniProt P09619); assay: Inhibition of PDGFR-beta (unknown origin) at 0.5 uM relative to control
Chain of Platelet-derived growth factor receptor beta (Homo sapiens) (P09619 whole entry): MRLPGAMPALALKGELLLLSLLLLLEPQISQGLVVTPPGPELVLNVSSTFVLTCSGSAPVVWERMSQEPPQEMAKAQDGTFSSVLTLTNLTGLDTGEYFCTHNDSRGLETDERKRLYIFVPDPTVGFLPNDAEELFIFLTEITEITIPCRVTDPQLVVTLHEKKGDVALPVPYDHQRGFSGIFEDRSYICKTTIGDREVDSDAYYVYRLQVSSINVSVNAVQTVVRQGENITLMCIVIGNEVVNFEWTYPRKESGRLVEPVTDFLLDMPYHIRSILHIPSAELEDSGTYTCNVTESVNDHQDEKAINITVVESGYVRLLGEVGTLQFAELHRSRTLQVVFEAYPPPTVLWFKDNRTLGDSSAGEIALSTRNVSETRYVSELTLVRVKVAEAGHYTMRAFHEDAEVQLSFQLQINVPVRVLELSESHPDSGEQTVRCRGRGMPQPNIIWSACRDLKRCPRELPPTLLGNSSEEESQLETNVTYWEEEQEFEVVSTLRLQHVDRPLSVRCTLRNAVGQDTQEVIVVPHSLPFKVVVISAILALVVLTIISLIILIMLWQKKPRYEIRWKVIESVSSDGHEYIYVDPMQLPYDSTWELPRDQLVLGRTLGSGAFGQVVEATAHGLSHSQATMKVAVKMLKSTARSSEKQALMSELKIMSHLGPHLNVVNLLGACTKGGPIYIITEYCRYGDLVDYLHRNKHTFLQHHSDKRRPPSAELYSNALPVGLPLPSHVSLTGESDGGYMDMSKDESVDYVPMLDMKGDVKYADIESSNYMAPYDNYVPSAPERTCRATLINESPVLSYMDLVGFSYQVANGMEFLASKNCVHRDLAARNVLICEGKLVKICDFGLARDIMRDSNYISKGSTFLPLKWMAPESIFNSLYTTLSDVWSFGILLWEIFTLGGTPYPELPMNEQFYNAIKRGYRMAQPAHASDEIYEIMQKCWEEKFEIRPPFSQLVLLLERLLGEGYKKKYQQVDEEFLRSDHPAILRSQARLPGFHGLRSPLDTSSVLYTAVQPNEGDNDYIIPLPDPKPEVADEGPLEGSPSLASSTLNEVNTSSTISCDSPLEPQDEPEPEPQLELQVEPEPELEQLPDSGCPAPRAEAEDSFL

[6] = biological target: MAP kinase-interacting serine/threonine-protein kinase 2 (Homo sapiens) (UniProt Q9HBH9); assay: Inhibition of MNK2 (unknown origin) at 0.5 uM relative to control
[7] = biological target: Serine/threonine-protein kinase B-raf (Homo sapiens) (UniProt P15056); assay: Inhibition of BRAF (unknown origin) at 0.5 uM relative to control
[8] = biological target: Vascular endothelial growth factor receptor 2 (Homo sapiens) (UniProt P35968); assay: Inhibition of KDR (unknown origin) at 0.5 uM relative to control
[9] = biological target: SRSF protein kinase 3 (Homo sapiens) (UniProt Q9UPE1); assay: Inhibition of MSSK1 (unknown origin) at 0.5 uM relative to control
[10] = biological target: RAF proto-oncogene serine/threonine-protein kinase (Homo sapiens) (UniProt P04049); assay: Inhibition of CRAF (unknown origin) at 0.5 uM relative to control
[11] = biological target: Macrophage colony-stimulating factor 1 receptor (Homo sapiens) (UniProt P07333); assay: Inhibition of FMS (unknown origin) at 0.5 uM relative to control
Chain of Macrophage colony-stimulating factor 1 receptor (Homo sapiens) (P07333 whole entry): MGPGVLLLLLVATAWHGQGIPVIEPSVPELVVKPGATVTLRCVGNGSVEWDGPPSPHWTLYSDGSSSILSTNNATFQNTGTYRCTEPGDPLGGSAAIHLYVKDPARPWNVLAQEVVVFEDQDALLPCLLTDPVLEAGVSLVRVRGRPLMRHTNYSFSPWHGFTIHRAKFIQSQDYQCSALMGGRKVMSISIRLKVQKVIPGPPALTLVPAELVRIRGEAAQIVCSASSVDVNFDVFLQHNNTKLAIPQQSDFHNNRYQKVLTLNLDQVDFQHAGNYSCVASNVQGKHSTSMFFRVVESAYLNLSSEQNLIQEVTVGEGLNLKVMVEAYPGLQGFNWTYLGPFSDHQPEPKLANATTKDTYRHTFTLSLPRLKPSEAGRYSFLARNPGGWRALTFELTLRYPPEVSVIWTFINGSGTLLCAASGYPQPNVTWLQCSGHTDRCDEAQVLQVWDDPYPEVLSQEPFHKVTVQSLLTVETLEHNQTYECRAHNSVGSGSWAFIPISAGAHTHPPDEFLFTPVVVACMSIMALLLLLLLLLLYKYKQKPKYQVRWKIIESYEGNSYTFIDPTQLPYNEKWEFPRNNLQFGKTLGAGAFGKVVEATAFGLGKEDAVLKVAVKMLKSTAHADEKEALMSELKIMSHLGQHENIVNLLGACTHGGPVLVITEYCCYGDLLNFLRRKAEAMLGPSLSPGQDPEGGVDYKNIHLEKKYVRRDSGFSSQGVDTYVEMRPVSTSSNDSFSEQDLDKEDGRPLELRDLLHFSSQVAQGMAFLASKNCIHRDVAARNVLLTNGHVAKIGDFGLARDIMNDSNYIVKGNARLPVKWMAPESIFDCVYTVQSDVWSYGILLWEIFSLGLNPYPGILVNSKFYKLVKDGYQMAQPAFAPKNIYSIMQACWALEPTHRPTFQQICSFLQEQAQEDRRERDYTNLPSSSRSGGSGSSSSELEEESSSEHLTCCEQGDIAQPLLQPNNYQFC

[12] = biological target: Ephrin type-A receptor 2 (Homo sapiens) (UniProt P29317); assay: Inhibition of EPHA2 (unknown origin) at 0.5 uM relative to control
[13] = biological target: Ephrin type-A receptor 1 (Homo sapiens) (UniProt P21709); assay: Inhibition of EPHA1 (unknown origin) at 0.5 uM relative to control
[14] = biological target: Dual specificity mitogen-activated protein kinase kinase 4 (Homo sapiens) (UniProt P45985); assay: Inhibition of MAP2K4 (unknown origin) at 0.5 uM relative to control
[15] = biological target: Mitogen-activated protein kinase 11 (Homo sapiens) (UniProt Q15759); assay: Inhibition of p38beta (unknown origin) at 0.5 uM relative to control
[16] = biological target: Serine/threonine-protein kinase PLK4 (Homo sapiens) (UniProt O00444); assay: Inhibition of PLK4 (unknown origin) at 0.5 uM relative to control
[17] = biological target: Mitogen-activated protein kinase kinase kinase 9 (Homo sapiens) (UniProt P80192); assay: Inhibition of MLK1 (unknown origin) at 0.5 uM relative to control
[18] = biological target: Angiopoietin-1 receptor (Homo sapiens) (UniProt Q02763); assay: Inhibition of TIE2 (unknown origin) at 0.5 uM relative to control
[19] = biological target: Non-receptor tyrosine-protein kinase TNK1 (Homo sapiens) (UniProt Q13470); assay: Inhibition of TNK1 (unknown origin) at 0.5 uM relative to control
[20] = biological target: Serine/threonine-protein kinase PLK2 (Homo sapiens) (UniProt Q9NYY3); assay: Inhibition of PLK2 (unknown origin) at 0.5 uM relative to control
[21] = biological target: Tyrosine-protein kinase JAK1 (Homo sapiens) (UniProt P23458); assay: Inhibition of JAK1 (unknown origin) at 0.5 uM relative to control
[22] = biological target: Tyrosine-protein kinase JAK2 (Homo sapiens) (UniProt O60674); assay: Inhibition of JAK2 (unknown origin) at 0.5 uM relative to control
[23] = biological target: Mitogen-activated protein kinase kinase kinase kinase 5 (Homo sapiens) (UniProt Q9Y4K4); assay: Inhibition of MAP4K5 (unknown origin) at 0.5 uM relative to control
[24] = biological target: Homeodomain-interacting protein kinase 3 (Homo sapiens) (UniProt Q9H422); assay: Inhibition of HIPK3 (unknown origin) assessed as effect on HIPK3 protein level by Western blotting analysis
Chain of Homeodomain-interacting protein kinase 3 (Homo sapiens) (Q9H422 whole entry, looked up): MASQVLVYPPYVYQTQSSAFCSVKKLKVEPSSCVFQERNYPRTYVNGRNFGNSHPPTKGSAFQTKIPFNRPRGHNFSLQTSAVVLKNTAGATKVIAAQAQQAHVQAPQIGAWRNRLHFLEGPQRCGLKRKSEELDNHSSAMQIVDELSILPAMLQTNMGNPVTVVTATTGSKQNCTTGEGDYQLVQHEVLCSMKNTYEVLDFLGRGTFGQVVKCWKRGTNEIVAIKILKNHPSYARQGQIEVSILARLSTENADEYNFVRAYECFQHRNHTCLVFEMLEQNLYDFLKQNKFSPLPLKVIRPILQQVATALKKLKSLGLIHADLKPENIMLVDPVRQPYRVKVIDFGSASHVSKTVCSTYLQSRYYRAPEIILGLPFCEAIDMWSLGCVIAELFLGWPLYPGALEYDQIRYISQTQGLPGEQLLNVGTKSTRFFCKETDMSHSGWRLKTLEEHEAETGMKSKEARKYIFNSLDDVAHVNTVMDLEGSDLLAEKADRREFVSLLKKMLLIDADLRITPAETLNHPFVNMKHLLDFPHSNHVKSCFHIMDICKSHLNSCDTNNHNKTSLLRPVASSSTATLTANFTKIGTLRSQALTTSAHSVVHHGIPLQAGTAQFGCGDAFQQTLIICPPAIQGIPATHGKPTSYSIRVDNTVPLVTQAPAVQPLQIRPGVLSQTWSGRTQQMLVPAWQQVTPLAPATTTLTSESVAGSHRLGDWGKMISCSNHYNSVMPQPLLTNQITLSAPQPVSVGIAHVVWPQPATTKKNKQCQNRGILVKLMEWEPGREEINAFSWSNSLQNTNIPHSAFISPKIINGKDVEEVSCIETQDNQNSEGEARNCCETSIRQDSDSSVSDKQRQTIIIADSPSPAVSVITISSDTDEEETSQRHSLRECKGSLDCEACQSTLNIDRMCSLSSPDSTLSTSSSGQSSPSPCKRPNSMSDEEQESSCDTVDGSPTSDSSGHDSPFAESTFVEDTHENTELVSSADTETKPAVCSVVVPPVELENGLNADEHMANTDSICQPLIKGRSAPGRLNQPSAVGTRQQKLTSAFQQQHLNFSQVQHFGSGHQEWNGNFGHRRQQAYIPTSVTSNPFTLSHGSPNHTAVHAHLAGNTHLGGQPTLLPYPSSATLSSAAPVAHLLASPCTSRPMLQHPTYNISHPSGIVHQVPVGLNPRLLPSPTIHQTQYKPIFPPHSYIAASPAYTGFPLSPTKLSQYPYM

[25] = biological target: Ephrin type-A receptor 5 (Homo sapiens) (UniProt P54756); assay: Inhibition of EPH-A5 (unknown origin) at 0.5 uM relative to control
[26] = biological target: Tyrosine-protein kinase Lyn (Homo sapiens) (UniProt P07948); assay: Inhibition of LYNB (unknown origin) at 0.5 uM relative to control
MDA-MB-231 [27] = assay: Inhibition of FAK/pFAK protein expression in human MDA-MB-231 cells by Western blotting analysis; type: functional, cell-based
[28] = biological target: Tyrosine-protein kinase receptor UFO (Homo sapiens) (UniProt P30530); assay: Inhibition of AXL (unknown origin) at 0.5 uM relative to control
[29] = biological target: Homeodomain-interacting protein kinase 1 (Homo sapiens) (UniProt Q86Z02); assay: Inhibition of HIPK1 (unknown origin) assessed as effect on HIPK1 protein level by Western blotting analysis
Chain of Homeodomain-interacting protein kinase 1 (Homo sapiens) (Q86Z02 whole entry, looked up): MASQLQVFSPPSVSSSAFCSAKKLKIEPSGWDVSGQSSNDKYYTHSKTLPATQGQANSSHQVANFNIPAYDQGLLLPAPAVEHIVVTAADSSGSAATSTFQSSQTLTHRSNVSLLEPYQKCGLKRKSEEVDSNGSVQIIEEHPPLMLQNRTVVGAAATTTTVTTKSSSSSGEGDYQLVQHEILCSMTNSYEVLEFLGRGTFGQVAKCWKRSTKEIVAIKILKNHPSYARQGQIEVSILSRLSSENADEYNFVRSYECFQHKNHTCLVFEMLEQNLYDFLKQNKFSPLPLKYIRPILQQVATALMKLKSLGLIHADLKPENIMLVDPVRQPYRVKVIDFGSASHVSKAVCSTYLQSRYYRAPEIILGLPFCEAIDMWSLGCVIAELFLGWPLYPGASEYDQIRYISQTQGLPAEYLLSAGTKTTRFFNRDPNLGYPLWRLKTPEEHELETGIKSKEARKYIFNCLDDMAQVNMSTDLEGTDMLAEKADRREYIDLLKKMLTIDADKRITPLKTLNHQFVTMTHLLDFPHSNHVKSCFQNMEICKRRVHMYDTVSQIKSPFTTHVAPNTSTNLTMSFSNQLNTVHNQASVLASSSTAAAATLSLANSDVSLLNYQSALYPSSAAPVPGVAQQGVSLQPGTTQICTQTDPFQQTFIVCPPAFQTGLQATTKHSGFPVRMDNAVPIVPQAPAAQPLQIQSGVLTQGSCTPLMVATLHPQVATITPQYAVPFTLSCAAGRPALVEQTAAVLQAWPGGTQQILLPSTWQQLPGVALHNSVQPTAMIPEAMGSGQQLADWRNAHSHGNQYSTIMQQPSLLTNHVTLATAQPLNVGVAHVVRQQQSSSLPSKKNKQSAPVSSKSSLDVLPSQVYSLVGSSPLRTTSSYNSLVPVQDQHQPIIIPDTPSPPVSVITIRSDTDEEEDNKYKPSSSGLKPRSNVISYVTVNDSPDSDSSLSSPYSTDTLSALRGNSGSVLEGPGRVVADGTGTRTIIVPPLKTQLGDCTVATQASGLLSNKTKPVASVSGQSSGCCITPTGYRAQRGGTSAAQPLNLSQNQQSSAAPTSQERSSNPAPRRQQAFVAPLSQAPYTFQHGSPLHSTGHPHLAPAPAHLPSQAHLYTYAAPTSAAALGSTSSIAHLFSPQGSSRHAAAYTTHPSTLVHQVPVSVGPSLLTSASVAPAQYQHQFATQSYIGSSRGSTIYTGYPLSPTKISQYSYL

MDA-MB-231 [30] = assay: Inhibition of cell migration in human MDA-MB-231 cells; type: functional, cell-based
MDA-MB-231 [31] = assay: Inhibition of HIPK4 protein expression in human MDA-MB-231 cells by Western blotting analysis; type: functional, cell-based
[32] = biological target: Platelet-derived growth factor receptor alpha (Homo sapiens) (UniProt P16234); assay: Inhibition of PDGFR-alpha (unknown origin) at 0.5 uM relative to control
[33] = biological target: Inhibitor of nuclear factor kappa-B kinase subunit epsilon (Homo sapiens) (UniProt Q14164); assay: Inhibition of IKK-epsilon (unknown origin) at 0.5 uM relative to control
[34] = biological target: Serine/threonine-protein kinase MARK1 (Homo sapiens) (UniProt Q9P0L2); assay: Inhibition of MARK1 (unknown origin) at 0.5 uM relative to control
[35] = biological target: Eukaryotic translation initiation factor 2-alpha kinase 3 (Homo sapiens) (UniProt Q9NZJ5); assay: Inhibition of PERK (unknown origin) at 0.5 uM relative to control
[36] = biological target: Tyrosine-protein kinase ABL2 (Homo sapiens) (UniProt P42684); assay: Inhibition of ARG (unknown origin) at 0.5 uM relative to control
[37] = biological target: Ephrin type-B receptor 3 (Homo sapiens) (UniProt P54753); assay: Inhibition of EPHB3 (unknown origin) at 0.5 uM relative to control
[38] = biological target: Vascular endothelial growth factor receptor 3 (Homo sapiens) (UniProt P35916); assay: Inhibition of FLT4 (unknown origin) at 0.5 uM relative to control
[39] = biological target: Fibroblast growth factor receptor 2 (Homo sapiens) (UniProt P21802); assay: Inhibition of FGFR2 (unknown origin) at 0.5 uM relative to control
[40] = biological target: Serine/threonine-protein kinase TAO2 (Homo sapiens) (UniProt Q9UL54); assay: Inhibition of TAOK2 (unknown origin) at 0.5 uM relative to control

SMILES | inhibition [1] [%] | inhibition [2] [%] | inhibition [3] [%] | inhibition [4] [%] | inhibition [5] [%] | inhibition [8] [%] | inhibition [10] [%] | inhibition [11] [%] | inhibition [18] [%] | Activity [24] | inhibition [25] [%] | inhibition (MDA-MB-231 [27]) | inhibition [28] [%] | Activity [29] | inhibition (MDA-MB-231 [30]) | inhibition (MDA-MB-231 [31]) | other results
CNC(=O)c1cc(Oc2ccc(NC(=O)c3nc(SC)oc3-c3ccc(F)cc3)cc2F)ccn1 | 51 | 38 | 63 | 53 | 40 | – | – | – | – | – | – | – | – | – | – | – | –
CNC(=O)c1cc(Oc2ccc(NC(=O)c3n[nH]nc3-c3ccc(F)cc3)cc2)ccn1 | 65 | – | – | – | 60 | 25 | 57 | 47 | – | – | – | – | – | – | – | – | inhibition [6]: 32%; inhibition [7]: 28%; inhibition [9]: 25%
CSc1nc(C(=O)Nc2ccc(Oc3cc4cnn(C)c4cc3Br)cc2)c(-c2ccc(F)cc2)o1 | – | – | 25 | 22 | – | – | – | – | 25 | – | – | – | – | – | – | – | inhibition [12]: 25%; inhibition [13]: 37%; inhibition [14]: 16%; inhibition [15]: 21%; inhibition [16]: 14%; inhibition [17]: 28%; inhibition [7]: 19%; inhibition [9]: 14%; inhibition [19]: 23%; inhibition [20]: 19%; inhibition [21]: 21%; inhibition [22]: 14%
CNC(=O)c1cc(Oc2ccc(NC(=O)c3nc(SC)[nH]c3-c3ccc(F)cc3)cc2)ccn1 | – | 92 | – | – | – | 95 | – | – | 88 | inactive | 85 | Active | 91 | inactive | Active | Active | inhibition [23]: 94%; inhibition [6]: 90%; inhibition [26]: 93%
CNC(=O)c1cc(Oc2ccc(NC(=O)c3nc(SC)n(CCN(C)C)c3-c3ccc(F)cc3)cc2)ccn1 | – | – | – | – | 70 | – | – | 65 | – | – | – | – | 64 | – | – | – | inhibition [32]: 44%; inhibition [33]: 34%; inhibition [34]: 44%; inhibition [35]: 64%
CNC(=O)c1cc(Oc2ccc(NC(=O)c3nc(SC)oc3-c3ccc(F)cc3)cc2)ccn1 | 63 | – | 65 | 41 | 55 | – | – | – | – | inactive | – | Active | – | inactive | Active | Active | inhibition [15]: 40%; inhibition [36]: 40%
CNC(=O)c1cc(Oc2ccc(NC(=O)c3nc(C(F)(F)F)sc3-c3ccc(F)cc3)cc2)ccn1 | – | – | – | – | – | 53 | – | 43 | – | – | – | – | 52 | – | – | – | inhibition [13]: 37%; inhibition [23]: 55%; inhibition [37]: 23%; inhibition [36]: 32%; inhibition [38]: 25%
CNC(=O)c1cc(Oc2ccc(NC(=O)c3nc(S(C)(=O)=O)sc3-c3ccc(F)cc3)cc2)ccn1 | – | 18 | 15 | – | – | 27 | 11 | 39 | 53 | inactive | 21 | Active | 83 | inactive | Active | Active | inhibition [39]: 11%
CNC(=O)c1cc(Oc2ccc(NC(=O)c3nc(NC)sc3-c3ccc(F)cc3)cc2)ccn1 | 40 | – | – | 60 | 61 | – | 63 | – | 43 | – | 50 | – | – | – | – | – | inhibition [40]: 44%
